Test results published in PMC11861906, “Structural basis for lipid-mediated activation of G protein-coupled receptor GPR55” (Nature Communications, 2025).

Molecular target: thromboxane A2 receptor (TBXA2R) (Gα13) (Homo sapiens, UniProt P21731)
Assay: BRET² G protein dissociation assay, TBXA2R with Gα13
Format: cell-based
Details: for Mean (plotted), G protein dissociation BRET² signal: TBXA2R-G13, Fig. 5c source data
Experimental: G protein dissociation assays were performed according to the original protocols of the TRUPATH BRET² assay[47],[87] but with subtle modifications as previously described[61],[88],[89]. All reagents and cells were obtained from Thermo Fisher Scientific unless indicated otherwise. The coding sequences for the G protein biosensors[47] (Gα12-Rluc8, Gα13-Rluc8, wt Gβ3, and Gγ9-GFP), the wt GPR55, the construct used for cryo-EM (with GFP bearing a G67A mutation to disrupt fluorescence properties[48] for BRET² assays), GPR55 binding pocket mutants (G152^4.56F, G152^4.56W, N171^ECL2Q, N171^ECL2A, T176^5.33A, R253^6.62A), and the wt TBXA2R were codon-optimized for Homo sapiens, gene-synthesized, and sub-cloned into pcDNA^TM3.1(+) between NheI and HindIII restriction sites by GeneArt (Thermo Fisher Scientific). […] Freshly grown cells were washed with Dulbecco’s Balanced Salt Solution (DPBS, cat. #14200075) and detached using trypsin-ethylenediaminetetraacetic acid (trypsin-EDTA) (cat. #25300-062). Then, the cells were reconstituted to 500,000 cells per mL with fresh medium, and 1,000,000 cells were seeded into each well of a 6-well plate. After 3 h incubation at 37 °C and 5% CO2, adherent cells were transfected with 600 ng DNA (1:1:1:1 ratio of plasmid DNA for GPR55, wt Gβ3, Gγ9-GFP, and Gα12-Rluc8 or Gα13-Rluc8). Plasmid DNA was mixed with 1.5 µL Lipofectamine^TM 2000 (cat. #11668027) in Opti-MEM^TM medium (cat. #31985062) and incubated for 20 min. Then, the mixture was added to each well of the 6-well plate following 24 h incubation at 37 °C and 5% CO2. Transfected cells were washed with DPBS, detached using EDTA (Versene, cat. #15040066), and reconstituted into fresh medium at 500,000 cells mL^−1. From this suspension, 50,000 cells were seeded into each well of a white-bottom 96-well plate (Nunc^TM MicroWell^TM 96 wells, cat. #136101) following overnight incubation at 37 °C and 5% CO2. Then, the adherent cells were washed with assay medium [Hank’s balanced salt solution (HBSS, cat. #14065056) plus 20 mM HEPES pH 7.4 (cat. #15630056)] and finally reconstituted into 50 µL of the same medium. […] Methoxy e-Coelenterazine was used as luciferase substrate (Prolume Purple, NanoLight Technology, cat. #369), reconstituted at 1 mM in methanol and diluted to 37.5 µM with assay buffer (7.5 µM final assay concentration). The assay was started by the addition of 20 µL luciferase substrate to each well of the assay plate using a Multidrop^TM Combi reagent dispenser (Thermo Fisher Scientific), followed by 5 min incubation at room temperature. Then, 30 µL of agonist dilutions or DMSO control was added (final DMSO concentration 1.5%), followed by an additional 5 min incubation at room temperature.

Sequence of thromboxane A2 receptor (TBXA2R) (Gα13) (P21731 whole entry, species assumed): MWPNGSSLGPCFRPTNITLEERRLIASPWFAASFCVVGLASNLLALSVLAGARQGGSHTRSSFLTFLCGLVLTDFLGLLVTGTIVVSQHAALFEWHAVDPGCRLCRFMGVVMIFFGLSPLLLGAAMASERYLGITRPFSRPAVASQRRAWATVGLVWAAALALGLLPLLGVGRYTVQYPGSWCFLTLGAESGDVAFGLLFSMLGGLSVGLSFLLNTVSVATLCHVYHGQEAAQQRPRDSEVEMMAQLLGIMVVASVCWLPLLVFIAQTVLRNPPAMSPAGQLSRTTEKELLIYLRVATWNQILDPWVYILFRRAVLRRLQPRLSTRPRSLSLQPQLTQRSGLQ
Sequence of thromboxane A2 receptor (TBXA2R) (Gα13) (Q14344 whole entry partner, species assumed): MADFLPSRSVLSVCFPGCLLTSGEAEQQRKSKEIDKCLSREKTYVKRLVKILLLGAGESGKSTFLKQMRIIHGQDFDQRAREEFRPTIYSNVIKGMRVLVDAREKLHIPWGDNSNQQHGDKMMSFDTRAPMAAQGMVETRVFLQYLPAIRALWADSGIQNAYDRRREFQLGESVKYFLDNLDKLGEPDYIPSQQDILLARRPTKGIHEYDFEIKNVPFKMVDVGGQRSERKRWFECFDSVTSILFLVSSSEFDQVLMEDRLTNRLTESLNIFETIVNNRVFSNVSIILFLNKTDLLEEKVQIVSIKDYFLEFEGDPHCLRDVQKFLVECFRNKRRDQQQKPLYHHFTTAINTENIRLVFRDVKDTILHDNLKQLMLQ
Sequence of thromboxane A2 receptor (TBXA2R) (Gα13) (P16520 whole entry partner, species assumed): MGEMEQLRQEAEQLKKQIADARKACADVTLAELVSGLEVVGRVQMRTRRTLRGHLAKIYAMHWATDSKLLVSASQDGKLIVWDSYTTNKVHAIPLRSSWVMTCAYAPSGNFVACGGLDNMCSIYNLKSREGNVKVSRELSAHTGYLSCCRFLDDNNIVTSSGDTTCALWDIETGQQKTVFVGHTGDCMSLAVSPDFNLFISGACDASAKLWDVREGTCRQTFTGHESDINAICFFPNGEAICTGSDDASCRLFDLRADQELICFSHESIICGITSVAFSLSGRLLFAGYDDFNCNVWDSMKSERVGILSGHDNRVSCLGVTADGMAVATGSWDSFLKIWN
Sequence of thromboxane A2 receptor (TBXA2R) (Gα13) (O14610 1-66 partner limits assumed, species assumed): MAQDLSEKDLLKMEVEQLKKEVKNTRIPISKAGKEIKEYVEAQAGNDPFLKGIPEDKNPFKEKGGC

Mean (plotted), G protein dissociation BRET² signal (concentration 300 pM) | Mean (plotted), G protein dissociation BRET² signal (concentration 1e-9 M) | Mean (plotted), G protein dissociation BRET² signal (concentration 3e-9 M) | Mean (plotted), G protein dissociation BRET² signal (concentration 1e-8 M) | Mean (plotted), G protein dissociation BRET² signal (concentration 3e-8 M) | Mean (plotted), G protein dissociation BRET² signal (concentration 1e-7 M) | Mean (plotted), G protein dissociation BRET² signal (concentration 3e-7 M) | Mean (plotted), G protein dissociation BRET² signal (concentration 1e-6 M) | Mean (plotted), G protein dissociation BRET² signal (concentration 3e-6 M) | Mean (plotted), G protein dissociation BRET² signal (concentration 1e-5 M) | Mean (plotted), G protein dissociation BRET² signal (concentration 3e-5 M) | Efficacy ± SEM (%) (TBXA2, Gα13) | pEC50 ± SEM (TBXA2, Gα13) | EC50 (TBXA2R via Gα13, read-out: potency (EC50)) [pM] | Mean (plotted), G protein dissociation BRET² signal (concentration 10 pM) | Mean (plotted), G protein dissociation BRET² signal (concentration 30 pM) | Compound
-0.002664 | -0.001942 | -0.0001851 | 0.008857 | 0.0122 | 0.01041 | 0.01174 | 0.01712 | 0.01801 | 0.01748 | 0.01231 | – | – | – | – | – | Cc1cccc(N2CCN(C(=O)c3cc(S(=O)(=O)N(C)C)ccc3N3CCCC3)CC2)c1C [ML184, 3-[[4-(2,3-dimethylphenyl)-1-piperazinyl]carbonyl]-N,N-dimethyl-4-(1-pyrrolidinyl)benzenesulfonamide]
-0.03967 | -0.07222 | -0.103 | – | -0.1326 | – | -0.1394 | -0.1409 | – | – | – | 100 ± 2 | 9.03 ± 0.11 | 930 | 0.004083 | 0.00585 | CCCCC[C@H](O)/C=C/[C@@H]1[C@@H](C/C=C\CCCC(=O)O)[C@H]2CO[C@@H]1C2 [U-46619]
